From ChEMBL document CHEMBL1799993, “Design driven HtL: The discovery and synthesis of new high efficacy β₂-agonists” (Bioorg Med Chem Lett, 2011)
Calls of active or inactive are those of the source. The rule behind the calls is not given here.

Key:
[1] = target: Beta-2 adrenergic receptor (Homo sapiens, UniProt P07550); experiment: Agonist activity at human adrenergic beta2 receptor expressed in H292 cells assessed as intracellular cAMP accumulation after 1 hr; assay type: functional, cell-based
Beta-2 adrenergic receptor, sequence (P07550 whole entry): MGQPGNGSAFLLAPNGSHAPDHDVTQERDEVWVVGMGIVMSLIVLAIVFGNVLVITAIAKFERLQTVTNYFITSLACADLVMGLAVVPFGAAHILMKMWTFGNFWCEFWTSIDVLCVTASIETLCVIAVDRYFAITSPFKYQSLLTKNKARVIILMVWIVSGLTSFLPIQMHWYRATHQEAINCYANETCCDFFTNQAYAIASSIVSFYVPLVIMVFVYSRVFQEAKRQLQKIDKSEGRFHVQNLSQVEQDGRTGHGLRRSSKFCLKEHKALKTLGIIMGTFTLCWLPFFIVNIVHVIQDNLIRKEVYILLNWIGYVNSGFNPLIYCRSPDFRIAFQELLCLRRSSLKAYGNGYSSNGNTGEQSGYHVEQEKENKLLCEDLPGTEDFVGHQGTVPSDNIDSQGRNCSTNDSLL

Cavia porcellus [2] = experiment: Bronchodilatory activity against histamine-induced bronchoconstriction in guinea pig at ED80 intratracheally administered 2 hrs before challenge measured up to 2 hrs; assay type: functional, organism-based
Cavia porcellus [3] = experiment: Bronchodilatory activity against histamine-induced bronchoconstriction in guinea pig at ED80 intratracheally administered 2 hrs before challenge measured after 2 hrs; assay type: functional, organism-based
Cavia porcellus [4] = species on record: Cavia porcellus; experiment: Bronchodilatory activity against histamine-induced bronchospasm in guinea pig; assay type: functional, organism-based
Cavia porcellus [5] = experiment: Bronchodilatory activity against histamine-induced bronchoconstriction in guinea pig at ED80 intratracheally administered 2 hrs before challenge measured up to 12 hrs; assay type: functional; settings: inhaled or nasal

Row | Compound | EC50 [1] | further results
1 | CN(CCc1ccc(O)c2[nH]c(=O)sc12)CCN(C)C(=O)CCOCCc1ccccc1 | > 1000 nM | –
2 | CCCCN(CCNC[C@H](O)c1ccc(O)c2[nH]c(=O)sc12)C(=O)CCOCCc1ccccc1 | 0.794 nM | –
3 | CCCN(CCNCCc1ccc(O)c2[nH]c(=O)sc12)C(=O)CCOCCc1ccccc1 | 7.94 nM | –
4 | CCN(CCNCCc1ccc(O)c2[nH]c(=O)sc12)C(=O)CCOCCc1ccccc1 | 1 nM | –
5 | CCCCN(CCNCCc1ccc(O)c2[nH]c(=O)sc12)C(=O)CCOCCc1ccccc1 | 1.58 nM | Activity (Cavia porcellus [2]): Active; Activity (Cavia porcellus [3]): inactive; Activity (Cavia porcellus [4]): Dose-dependent effect; ED80 (Cavia porcellus [5]): 2.6 µg/kg
6 | CCCCN(CCN(C)CCc1ccc(O)c2[nH]c(=O)sc12)C(=O)CCOCCc1ccccc1 | 126 nM | –
7 | COc1ccc(CCNCCN(C)C(=O)CCOCCc2ccccc2)c2sc(=O)[nH]c12 | > 1000 nM | –
8 | CC(C)N(CCNCCc1ccc(O)c2[nH]c(=O)sc12)C(=O)CCOCCc1ccccc1 | 7.94 nM | –
9 | CC(C)(CNCCc1ccc(O)c2[nH]c(=O)sc12)NC(=O)CCOCCc1ccccc1 | 7.94 nM | –
10 | O=C(CCOCCc1ccccc1)NCCNCCc1ccc(O)c2nc(O)sc12 | 1.58 nM | –
11 | OCc1cc(C(O)CNCCCCCCOCCCCc2ccccc2)ccc1O (configuration not stated) [SALMETEROL] | – | ED80 (Cavia porcellus [5]): 0.7 µg/kg
12 | CN(CCNCCc1ccc(O)c2[nH]c(=O)sc12)C(=O)CCOCCc1ccccc1 | 0.501 nM | –
13 | COc1ccc(CC(C)NCC(O)c2ccc(O)c(NC=O)c2)cc1 (configuration not stated) [FORMOTEROL] | – | ED80 (Cavia porcellus [5]): 1.4 µg/kg
